Data: ChEMBL document CHEMBL4428105, “Conformational and electrostatic analysis of SN1 donor analogue glycomimetic inhibitors of ST3Gal-I mammalian sialyltransferase” (Bioorg Med Chem, 2016)

assay: Inhibition of rat recombinant ST3Gal-1 using CMP-Neu5Ac as substrate after 20 mins by fluorescence based reverse phase HPLC analysis

**Q.** For `CC(=O)N[C@H]1[C@H]([C@H](O)[C@H](O)CO)O[C@](CCP(=O)(O)OC[C@H]2O[C@@H](n3ccc(N)nc3=O)[C@H](O)[C@@H]2O)(C(=O)O)C[C@@H]1O`, which IC50 is on record?
**A.** 0.047 mM

**Q.** For `CC(=O)N[C@H]1[C@H]([C@H](O)[C@H](O)CO)O[C@](CCP(=O)(O)OC[C@H]2O[C@@H](n3ccc(N)nc3=O)[C@H](O)[C@@H]2O)(C(N)=O)C[C@@H]1O`, which IC50 is on record?
**A.** 3.3 mM

**Q.** With `CC(=O)N[C@H]1[C@H]([C@H](O)[C@H](O)CO)O[C@@](CO)(CCP(=O)(O)OC[C@H]2O[C@@H](n3ccc(N)nc3=O)[C@H](O)[C@@H]2O)C[C@@H]1O` as the molecule, how does the IC50 read?
**A.** 4.2 mM
